Measurements as given in ChEMBL document CHEMBL5463723, “Data for DCP probe BIBO3304” (2023).

Legend:
[1] = target: Insulin receptor (Rattus norvegicus) (UniProt P15127); assay: Activity against INSULIN/R in the Eurofins Panlabs screen (BI) by Radioactive Assay; conditions: Compound concentration 10.0 uM
[2] = target: cGMP-inhibited 3',5'-cyclic phosphodiesterase 3A (Homo sapiens) (UniProt Q14432); assay: Inhibitor of PDE3A in the Eurofins Cerep SafetyScreen44 (BI) by HTRF-homogeneous time resolved fluoresce (Cerep_4072); conditions: Compound concentration 10.0 uM
MAO-A = MAO-A (Homo sapiens, UniProt P21397); assay: Agonist activity in the Eurofins Cerep SafetyScreen44 (BI) against MAO-A_ANTAG by Scintillation counting (Cerep_443); set-up: scale not given: the % may be the effect or the level left; conditions: rat; compound concentration 10 uM; target entry is the homologue from another species; read-out: % Ctrl
[3] = target: Androgen receptor (Rattus norvegicus) (UniProt P15207); assay: Activity against TESTOST/R in the Eurofins Panlabs screen (BI) by Radioactive Assay; conditions: Compound concentration 10.0 uM
[4] = target: Sodium-dependent noradrenaline transporter (Homo sapiens) (UniProt P23975); assay: norepinephrine transporter Eurofins-Cerep binding assay; set-up: ligand concentration 1 nM; conditions: Compound concentration 10.0 uM
[5] = target: Gastrin/cholecystokinin type B receptor (Mus musculus) (UniProt P56481); assay: Activity against CCKB/M in the Eurofins Panlabs screen (BI); conditions: Compound concentration 10.0 uM
Gastrin/cholecystokinin type B receptor (Mus musculus), sequence (P56481 whole entry): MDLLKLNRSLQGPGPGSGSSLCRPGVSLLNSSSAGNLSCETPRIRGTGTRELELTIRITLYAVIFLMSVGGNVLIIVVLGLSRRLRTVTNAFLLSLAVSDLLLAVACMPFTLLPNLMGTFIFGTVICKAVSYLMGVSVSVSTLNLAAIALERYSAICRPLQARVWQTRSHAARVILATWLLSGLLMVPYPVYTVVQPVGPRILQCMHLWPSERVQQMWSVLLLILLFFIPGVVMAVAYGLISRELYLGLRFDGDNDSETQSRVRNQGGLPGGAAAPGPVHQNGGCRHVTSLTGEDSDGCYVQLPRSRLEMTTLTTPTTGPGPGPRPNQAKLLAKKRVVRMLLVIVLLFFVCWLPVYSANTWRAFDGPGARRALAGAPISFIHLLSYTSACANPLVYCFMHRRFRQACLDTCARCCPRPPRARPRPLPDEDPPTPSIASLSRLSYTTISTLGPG

[6] = target: Interleukin-1 receptor type 1 (Mus musculus) (UniProt P13504); assay: Activity against IL-1ALPHA/M in the Eurofins Panlabs screen (BI) by Radioactive Assay; conditions: Compound concentration 10.0 uM
[7] = target: Potassium voltage-gated channel subfamily V member 1 (Rattus norvegicus) (UniProt P97557); assay: Activity against K+/KV/R in the Eurofins Panlabs screen (BI) by Radioactive Assay; conditions: Compound concentration 10.0 uM
Potassium voltage-gated channel subfamily V member 1 (Rattus norvegicus), sequence (P97557 whole entry): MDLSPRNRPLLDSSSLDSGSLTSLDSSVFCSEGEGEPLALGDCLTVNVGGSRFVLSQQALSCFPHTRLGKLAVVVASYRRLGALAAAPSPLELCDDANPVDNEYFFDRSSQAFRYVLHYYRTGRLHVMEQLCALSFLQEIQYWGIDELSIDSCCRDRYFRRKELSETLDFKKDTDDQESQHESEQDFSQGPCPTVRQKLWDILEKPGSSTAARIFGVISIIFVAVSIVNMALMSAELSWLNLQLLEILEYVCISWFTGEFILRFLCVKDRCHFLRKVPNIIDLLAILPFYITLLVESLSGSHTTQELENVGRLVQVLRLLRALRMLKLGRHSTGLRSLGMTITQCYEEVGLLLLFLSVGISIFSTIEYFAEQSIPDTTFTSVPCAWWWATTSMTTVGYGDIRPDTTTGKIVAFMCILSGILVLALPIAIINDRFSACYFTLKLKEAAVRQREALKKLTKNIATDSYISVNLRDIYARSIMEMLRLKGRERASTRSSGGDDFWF

[8] = target: Alpha-1A adrenergic receptor (Homo sapiens) (UniProt P35348); assay: Activity against ALPHA1A/R in the Eurofins Panlabs screen (BI) by Others; conditions: Rattus norvegicus; Compound concentration 10.0 uM
[9] = target: Protein kinase C beta type (Homo sapiens) (UniProt P05771); assay: Inhibitor of PKCBETA in the Eurofins Panlabs screen (BI) by Radioactive Assay; conditions: Compound concentration 10.0 uM
[10] = target: Small conductance calcium-activated potassium channel protein 1 (Rattus norvegicus) (UniProt P70606); assay: Activity against K+/SKCA in the Eurofins Panlabs screen (BI) by Radioactive Assay; conditions: Compound concentration 10.0 uM
[11] = target: Vasoactive intestinal peptide receptor 1 (Cavia porcellus) (UniProt A0A286XMQ0); assay: Activity against VIP1/GP in the Eurofins Panlabs screen (BI) by Radioactive Assay; conditions: Compound concentration 10.0 uM
[12] = target: Calpain-1 catalytic subunit (Homo sapiens) (UniProt P07384); assay: Inhibitor of CALPAIN in the Eurofins Panlabs screen (BI) by FI - fluorescence intensity; conditions: Compound concentration 10.0 uM
[13] = target: Carbonic anhydrase 6 (Homo sapiens) (UniProt P23280); assay: Inhibitor of CANHYDRASE in the Eurofins Panlabs screen (BI) by absorption of electromagnetic radiation; conditions: Compound concentration 10.0 uM
Carbonic anhydrase 6 (Homo sapiens), sequence (P23280 whole entry): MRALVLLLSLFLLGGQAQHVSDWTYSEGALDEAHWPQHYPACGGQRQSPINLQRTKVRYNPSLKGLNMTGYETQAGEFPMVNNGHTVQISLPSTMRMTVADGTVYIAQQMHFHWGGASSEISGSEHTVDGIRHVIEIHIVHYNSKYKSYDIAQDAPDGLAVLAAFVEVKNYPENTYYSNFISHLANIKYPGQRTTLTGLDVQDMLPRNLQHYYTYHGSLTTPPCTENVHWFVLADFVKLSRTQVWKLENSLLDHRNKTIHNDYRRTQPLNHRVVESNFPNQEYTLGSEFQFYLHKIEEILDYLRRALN

[14] = target: Delta-type opioid receptor (Homo sapiens) (UniProt P41143); assay: delta (DOP) Eurofins-Cerep binding assay; set-up: ligand concentration 0.5 nM; conditions: Compound concentration 10.0 uM
Oryctolagus cuniculus = species: Oryctolagus cuniculus; assay: Activity against 5HT3/RB in the Eurofins Panlabs screen (BI) by Radioactive Assay; conditions: Compound concentration 10.0 uM
[15] = target: Neprilysin (Homo sapiens) (UniProt P08473); assay: Activity against NEUTRALENDOP in the Eurofins Panlabs screen (BI) by absorption of electromagnetic radiation; conditions: Compound concentration 10.0 uM
[16] = target: Calcitonin-gene-related peptide receptor; CALCRL/RAMP1 (Rattus norvegicus) (UniProt Q63118+Q9JJ74); assay: Activity against CGRP/R in the Eurofins Panlabs screen (BI) by Radioactive Assay; format: protein-complex assay; conditions: Compound concentration 10.0 uM
[17] = target: Prostaglandin G/H synthase 1 (Homo sapiens) (UniProt P23219); assay: Inhibitor of COX-1 in the Eurofins Cerep SafetyScreen44 (BI) by Fluorimetry (Cerep_4173); conditions: Compound concentration 10.0 uM
[18] = target: Estrogen receptor (Bos taurus) (UniProt P49884); assay: Activity against ESTROGEN/BO in the Eurofins Panlabs screen (BI) by Radioactive Assay; conditions: Compound concentration 10.0 uM
[19] = target: Somatostatin receptor type 5 (Mus musculus) (UniProt O08858); assay: Activity against SOMATOS/MO in the Eurofins Panlabs screen (BI) by Radioactive Assay; conditions: Compound concentration 10.0 uM
Somatostatin receptor type 5 (Mus musculus), sequence (O08858 whole entry): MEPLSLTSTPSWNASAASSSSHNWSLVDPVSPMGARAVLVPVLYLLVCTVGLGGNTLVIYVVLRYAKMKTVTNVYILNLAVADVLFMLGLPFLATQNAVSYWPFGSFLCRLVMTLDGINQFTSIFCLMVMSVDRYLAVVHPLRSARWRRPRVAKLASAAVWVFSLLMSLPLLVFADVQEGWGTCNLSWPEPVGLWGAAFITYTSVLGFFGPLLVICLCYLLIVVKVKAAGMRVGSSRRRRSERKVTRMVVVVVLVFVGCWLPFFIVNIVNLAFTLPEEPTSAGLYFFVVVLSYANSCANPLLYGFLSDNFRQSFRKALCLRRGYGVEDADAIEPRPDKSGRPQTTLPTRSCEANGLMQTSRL

[20] = target: Glutamate NMDA receptor (Rattus norvegicus) (UniProt P35439+Q00959+Q00960+Q00961+Q62645+Q8VHN2+Q9R1M7); assay: Agonist activity in the Eurofins Panlabs screen (BI) against NMDAAGSI/R by Radioactive Assay; format: protein-complex assay; conditions: Compound concentration 10.0 uM
[21] = target: 5-hydroxytryptamine receptor 1B (Homo sapiens) (UniProt P28222); assay: 5-HT1B Eurofins-Cerep binding assay; set-up: ligand concentration 1 nM; conditions: Compound concentration 10.0 uM
[22] = target: Neuropeptide Y receptor type 2 (Rattus norvegicus, UniProt Q9ERC0); assay: Radioligand binding assay (NPY2R, rat hippocampus); format: tissue-based
[23] = target: D(1A) dopamine receptor (Homo sapiens) (UniProt P21728); assay: Activity against D1/HU in the Eurofins Panlabs screen (BI) by Radioactive Assay; conditions: Compound concentration 10.0 uM
D(1A) dopamine receptor (Homo sapiens), sequence (P21728 whole entry): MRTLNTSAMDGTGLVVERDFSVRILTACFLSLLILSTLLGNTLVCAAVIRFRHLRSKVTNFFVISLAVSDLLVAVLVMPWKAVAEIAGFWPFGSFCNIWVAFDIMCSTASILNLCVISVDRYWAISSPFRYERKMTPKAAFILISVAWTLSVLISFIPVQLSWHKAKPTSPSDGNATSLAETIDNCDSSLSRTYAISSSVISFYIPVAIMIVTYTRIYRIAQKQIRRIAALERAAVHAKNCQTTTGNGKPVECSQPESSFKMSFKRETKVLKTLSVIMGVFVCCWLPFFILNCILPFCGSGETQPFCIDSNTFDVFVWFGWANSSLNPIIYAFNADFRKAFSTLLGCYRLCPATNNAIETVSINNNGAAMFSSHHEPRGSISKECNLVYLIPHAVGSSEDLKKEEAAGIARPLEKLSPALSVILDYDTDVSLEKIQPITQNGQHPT

[24] = target: Epidermal growth factor receptor (Homo sapiens) (UniProt P00533); assay: Activity against EGF/HU in the Eurofins Panlabs screen (BI) by Radioactive Assay; conditions: Compound concentration 10.0 uM
[25] = target: Opioid receptor (Rattus norvegicus) (UniProt P33533+P34975+P33535); assay: Activity against OPIAT/NS in the Eurofins Panlabs screen (BI) by Radioactive Assay; format: protein assay; conditions: Compound concentration 10.0 uM
Opioid receptor (Rattus norvegicus), sequence (P33533 whole entry, looked up): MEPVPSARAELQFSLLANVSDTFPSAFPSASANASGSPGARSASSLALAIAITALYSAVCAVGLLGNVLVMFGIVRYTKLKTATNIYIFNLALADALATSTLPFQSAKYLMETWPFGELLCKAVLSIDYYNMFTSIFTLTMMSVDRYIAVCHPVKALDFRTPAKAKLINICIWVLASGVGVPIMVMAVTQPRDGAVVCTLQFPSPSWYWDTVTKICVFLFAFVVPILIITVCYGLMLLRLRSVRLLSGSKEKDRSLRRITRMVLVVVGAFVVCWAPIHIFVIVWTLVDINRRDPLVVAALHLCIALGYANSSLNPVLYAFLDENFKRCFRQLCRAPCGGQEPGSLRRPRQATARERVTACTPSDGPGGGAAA
Opioid receptor (Rattus norvegicus), sequence (P33535 whole entry, looked up): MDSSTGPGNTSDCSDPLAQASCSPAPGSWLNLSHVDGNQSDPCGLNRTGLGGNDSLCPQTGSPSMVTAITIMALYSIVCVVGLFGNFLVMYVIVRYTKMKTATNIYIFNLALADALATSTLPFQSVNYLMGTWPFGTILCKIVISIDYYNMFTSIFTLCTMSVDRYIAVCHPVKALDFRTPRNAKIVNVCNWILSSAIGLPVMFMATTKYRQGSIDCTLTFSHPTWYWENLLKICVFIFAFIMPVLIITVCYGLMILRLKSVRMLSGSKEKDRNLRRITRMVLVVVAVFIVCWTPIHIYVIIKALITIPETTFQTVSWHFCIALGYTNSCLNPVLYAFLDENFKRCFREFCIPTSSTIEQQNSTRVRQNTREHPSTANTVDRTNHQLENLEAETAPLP
Opioid receptor (Rattus norvegicus), sequence (P34975 whole entry, looked up): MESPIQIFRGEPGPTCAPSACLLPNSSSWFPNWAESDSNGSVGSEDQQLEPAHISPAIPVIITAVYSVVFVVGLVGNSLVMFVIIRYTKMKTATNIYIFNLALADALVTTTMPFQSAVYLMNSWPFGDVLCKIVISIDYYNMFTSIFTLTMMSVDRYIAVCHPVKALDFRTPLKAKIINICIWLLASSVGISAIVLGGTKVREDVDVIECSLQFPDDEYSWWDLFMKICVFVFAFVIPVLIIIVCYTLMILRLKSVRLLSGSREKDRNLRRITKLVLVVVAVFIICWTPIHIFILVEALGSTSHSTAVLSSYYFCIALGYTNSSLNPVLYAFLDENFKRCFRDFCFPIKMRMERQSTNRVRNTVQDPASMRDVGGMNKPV

[26] = target: 5-hydroxytryptamine receptor 2B (Homo sapiens) (UniProt P41595); assay: 5-HT2B Eurofins-Cerep binding assay; conditions: Compound concentration 10.0 uM
[27] = target: Potassium voltage-gated channel subfamily A member 1 (Rattus norvegicus) (UniProt P10499); assay: Activity against K+/KA/R in the Eurofins Panlabs screen (BI) by Radioactive Assay; conditions: Compound concentration 10.0 uM
Potassium voltage-gated channel subfamily A member 1 (Rattus norvegicus), sequence (P10499 whole entry): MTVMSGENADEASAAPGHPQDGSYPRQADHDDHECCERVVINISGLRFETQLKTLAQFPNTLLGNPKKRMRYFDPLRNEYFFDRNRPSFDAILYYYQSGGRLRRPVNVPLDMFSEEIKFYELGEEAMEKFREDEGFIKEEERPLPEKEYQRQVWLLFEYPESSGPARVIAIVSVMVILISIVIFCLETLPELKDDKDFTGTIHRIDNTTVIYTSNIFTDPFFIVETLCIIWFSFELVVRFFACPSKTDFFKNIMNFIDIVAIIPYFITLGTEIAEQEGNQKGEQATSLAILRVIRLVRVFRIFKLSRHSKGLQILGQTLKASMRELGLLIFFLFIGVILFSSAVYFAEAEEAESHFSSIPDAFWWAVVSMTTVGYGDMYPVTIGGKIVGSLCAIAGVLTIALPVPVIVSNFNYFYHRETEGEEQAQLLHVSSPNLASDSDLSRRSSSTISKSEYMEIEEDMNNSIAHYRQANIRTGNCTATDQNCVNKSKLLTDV

Rattus norvegicus = species: Rattus norvegicus; assay: Activity against BZD/CENTR/R in the Eurofins Cerep SafetyScreen44 (BI) by Radioactive Assay (Cerep_28); format: protein-complex assay; conditions: Compound concentration 10.0 uM
[28] = target: Tyrosine-protein kinase Lck (Homo sapiens) (UniProt P06239); assay: Inhibitor of P56TYRKINLCK in the Eurofins Panlabs screen (BI) by FI - fluorescence intensity; conditions: Compound concentration 10.0 uM
[29] = target: Glycine receptor (Rattus norvegicus) (UniProt P22771+P24524+P07727+P20781); assay: Activity against GLYCINSTRS in the Eurofins Panlabs screen (BI) by Radioactive Assay; format: protein-complex assay; conditions: Compound concentration 10.0 uM
[30] = target: Glucocorticoid receptor (Homo sapiens) (UniProt P04150); assay: GR Eurofins-Cerep binding assay; conditions: Compound concentration 10.0 uM
Glucocorticoid receptor (Homo sapiens), sequence (P04150 whole entry): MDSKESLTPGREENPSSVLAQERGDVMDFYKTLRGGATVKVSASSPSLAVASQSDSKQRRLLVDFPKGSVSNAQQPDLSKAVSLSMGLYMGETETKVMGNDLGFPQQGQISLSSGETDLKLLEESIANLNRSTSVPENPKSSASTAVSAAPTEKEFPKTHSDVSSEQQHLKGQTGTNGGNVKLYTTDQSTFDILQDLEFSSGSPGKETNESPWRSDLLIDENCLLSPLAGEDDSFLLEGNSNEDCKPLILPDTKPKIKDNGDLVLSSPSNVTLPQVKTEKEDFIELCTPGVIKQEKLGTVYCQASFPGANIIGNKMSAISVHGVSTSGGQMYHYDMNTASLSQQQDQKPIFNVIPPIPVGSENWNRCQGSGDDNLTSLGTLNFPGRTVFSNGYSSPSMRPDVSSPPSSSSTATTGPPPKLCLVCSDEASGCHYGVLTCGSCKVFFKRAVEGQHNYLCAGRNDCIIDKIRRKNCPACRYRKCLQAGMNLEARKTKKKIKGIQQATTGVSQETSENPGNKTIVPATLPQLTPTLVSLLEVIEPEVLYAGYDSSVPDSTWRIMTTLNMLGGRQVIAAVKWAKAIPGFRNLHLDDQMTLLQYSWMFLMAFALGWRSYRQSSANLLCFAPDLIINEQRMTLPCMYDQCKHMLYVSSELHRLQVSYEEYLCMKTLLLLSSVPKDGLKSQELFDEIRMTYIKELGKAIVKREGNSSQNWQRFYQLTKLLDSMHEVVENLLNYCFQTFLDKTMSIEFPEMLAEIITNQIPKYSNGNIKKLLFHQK

[31] = target: Glucocorticoid receptor (Homo sapiens) (UniProt P04150); assay: Activity against GCORTIC/H in the Eurofins Panlabs screen (BI) by Radioactive Assay; conditions: Compound concentration 10.0 uM
[32] = target: D(1A) dopamine receptor (Homo sapiens) (UniProt P21728); assay: D1 Eurofins-Cerep binding assay; set-up: ligand concentration 0.3 nM; conditions: Compound concentration 10.0 uM
[33] = target: Cannabinoid receptor 1 (Homo sapiens) (UniProt P21554); assay: CB1 Eurofins-Cerep binding assay; conditions: Compound concentration 10.0 uM
Cannabinoid receptor 1 (Homo sapiens), sequence (P21554 whole entry): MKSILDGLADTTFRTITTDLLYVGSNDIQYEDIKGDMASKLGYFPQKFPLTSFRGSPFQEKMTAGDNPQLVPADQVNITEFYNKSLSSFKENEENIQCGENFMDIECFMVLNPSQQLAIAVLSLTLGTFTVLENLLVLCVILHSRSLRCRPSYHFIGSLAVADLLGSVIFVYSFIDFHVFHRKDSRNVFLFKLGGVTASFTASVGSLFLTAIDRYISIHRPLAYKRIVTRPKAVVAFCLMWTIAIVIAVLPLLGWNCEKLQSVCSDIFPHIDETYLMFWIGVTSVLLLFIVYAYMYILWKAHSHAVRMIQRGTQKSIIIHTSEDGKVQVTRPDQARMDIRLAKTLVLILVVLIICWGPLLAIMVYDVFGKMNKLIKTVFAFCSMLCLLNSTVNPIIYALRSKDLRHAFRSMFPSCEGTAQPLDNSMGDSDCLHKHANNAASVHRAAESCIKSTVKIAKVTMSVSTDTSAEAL

[34] = target: Glutamate receptor ionotropic, NMDA 1 (Rattus norvegicus) (UniProt P35439); assay: Activity against NMDAGLSI/R in the Eurofins Panlabs screen (BI) by Radioactive Assay; conditions: Compound concentration 10.0 uM
[35] = target: Neuronal acetylcholine receptor subunit beta-2 (Rattus norvegicus) (UniProt P12390); assay: Activity against NACH/CENT/R in the Eurofins Panlabs screen (BI) by Radioactive Assay; conditions: Compound concentration 10.0 uM
[36] = target: Bombesin receptor subtype-3 (Rattus norvegicus) (UniProt Q8K418); assay: Activity against BOMBESIN/R in the Eurofins Panlabs screen (BI) by Radioactive Assay; conditions: Compound concentration 10.0 uM

With `N=C(N)NCCC[C@@H](NC(=O)C(c1ccccc1)c1ccccc1)C(=O)NCc1ccc(CNC(N)=O)cc1` the residual activity [1] was 98%, the residual activity [2] was 84% and the activity at 10 µM (MAO-A) was 97% (not active). The residual activity [3] was 88%, the residual activity [4] was 91% and the residual activity [5] was 117%. It also gave a residual activity [6] of 88%, a residual activity [7] of 89% and a residual activity [8] of 98%. It also gave a residual activity [9] of 89%, a residual activity [10] of 119% and a residual activity [11] of 88%. It also gave a residual activity [12] of 108%, a residual activity [13] of 96% and a residual activity [14] of 80%. For the same compound, the residual activity (Oryctolagus cuniculus) was 99%, the residual activity [15] was 102% and the residual activity [16] was 92%. For the same compound, the residual activity [17] was 81%, the residual activity [18] was 85% and the residual activity [19] was 103%. For the same compound, the residual activity [20] was 89%, the residual activity [21] was 60% and the IC50 [22] was > 10 µM (not active). It also gave a residual activity [23] of 95%, a residual activity [24] of 94% and a residual activity [25] of 114%. For the same compound, the residual activity [26] was 57%, the residual activity [27] was 99% and the residual activity (Rattus norvegicus) was 83%. It also gave a residual activity [28] of 97%, a residual activity [29] of 81% and a residual activity [30] of 98%. For the same compound, the residual activity [31] was 86%, the residual activity [32] was 97% and the residual activity [33] was 107%. For the same compound, the residual activity [34] was 87%, the residual activity [35] was 98% and the residual activity [36] was 100%.
